Values of other authors as cited in patent US20160051468A1, “Compositions for Prevention and/or Treatment of Gastrointestinal Imbalances in Digestive Disorders” (BRIGHT DRINKS INC., priority 2013, published 2016).

How the values were obtained:
DNA = settings: hydroxyl radical attack, in vitro
NF-κB [1] = settings: human IEC lines; by inhibiting I-κB kinase activity
[2] = in vitro, compared with other tea catechins
TNFα = settings: LPS-stimulated macrophage cell line; dose-response fashion
NF-κB [3] = settings: human colon carcinoma cell line

Row | minimum-inhibitory-concentration (MIC) for 90% of isolates (H. pylori; 110 mostly clinical isolates of H. pylori) | Structure (SMILES) | reduction of oxidative damage sustained by DNA (DNA) | NF-κB activation (NF-κB [1]) | scavenging of superoxide anion and hydroxyl radical [2] | TNFα protein levels (TNFα) | concentration with bactericidal effect (H. pylori; H. pylori in vitro) | concentration with bacteriostatic effect (H. pylori; H. pylori in vitro) | suppression of NF-κB reporter activity, relative potency (NF-κB [3])
1 | 32 μg per mL | O=C(O[C@@H]1Cc2c(O)cc(O)cc2O[C@@H]1c1cc(O)c(O)c(O)c1)c1cc(O)c(O)c(O)c1 [EGCG, epigallocatechin gallate] | highly active | blocking NF-κB activation | most effective of all catechins | significant decrease | 4 times the MIC | 2 times the MIC | 
2 |  | CCC(=O)O [Propionate] |  |  |  |  |  |  | equipotent
3 |  | CC(=O)O [acetate] |  |  |  |  |  |  | slightly less effective
